Experimental data published in ChEMBL document CHEMBL5715937, “In vitro activity of Bcr-Abl inhibitors AMN107 and BMS-354825 against clinically relevant imatinib-resistant Abl kinase domain mutants” (Cancer Res, 2005).
pIC50: −log10 of the molar value. Active and inactive are the calls of the source. The calls are words filed in the database; no cut-off is given here.

What was measured:
BaF3 [1] = experiment: Induction of apoptosis in mouse BaF3 cells expressing Bcr-Abl Y253F mutant at 30 to 300 nM incubated for 72 hrs by Annexin V-phycoerythrin and 7-amino-actinomycin D staining based PCA instrument analysis; assay type: functional, cell-based; conditions: dose 30-300 nM
[2] = Inhibition of BCR-ABL H396P mutant (unknown origin) expressed in mouse BaF3 cells assessed as inhibition of tyrosine phosphorylation incubated for 3 hrs by immunoblotting analysis; assay type: cell-based; conditions: BaF3, 3 h
BaF3 [3] = experiment: Induction of apoptosis in mouse BaF3 cells expressing Bcr-Abl E255K mutant at 30 to 300 nM incubated for 72 hrs by Annexin V-phycoerythrin and 7-amino-actinomycin D staining based PCA instrument analysis; assay type: functional, cell-based; conditions: dose 30-300 nM
BaF3 [4] = experiment: Induction of apoptosis in mouse BaF3 cells expressing Bcr-Abl Q252H mutant at 30 to 300 nM incubated for 72 hrs by Annexin V-phycoerythrin and 7-amino-actinomycin D staining based PCA instrument analysis; assay type: functional, cell-based; conditions: dose 30-300 nM
BaF3 [5] = experiment: Induction of apoptosis in mouse BaF3 cells expressing Bcr-Abl F317L mutant at 30 to 300 nM incubated for 72 hrs by Annexin V-phycoerythrin and 7-amino-actinomycin D staining based PCA instrument analysis; assay type: functional, cell-based; conditions: dose 30-300 nM
[6] = Inhibition of BCR-ABL G250E mutant (unknown origin) expressed in mouse BaF3 cells assessed as inhibition of cell growth incubated for 72 hrs by […] CellTiter96 viability analysis
cells [7] = conditions: Mus musculus, BaF3, 3 h
[8] = Inhibition of BCR-ABL F359V mutant (unknown origin) expressed in mouse BaF3 cells assessed as inhibition of cell growth incubated for 72 hrs by […] CellTiter96 viability analysis
BaF3 [9] = experiment: Induction of apoptosis in mouse BaF3 cells expressing Bcr-Abl Q252H mutant assessed as increase in apoptotic cells at 1500 nM incubated for 72 hrs by Annexin V-phycoerythrin and 7-amino-actinomycin D staining based PCA instrument analysis relative to control; assay type: functional
[10] = Inhibition of BCR-ABL H396R mutant (unknown origin) expressed in mouse BaF3 cells assessed as inhibition of cell growth incubated for 72 hrs by […] CellTiter96 viability analysis
BaF3 [11] = experiment: Induction of apoptosis in mouse BaF3 cells expressing Bcr-Abl L387M mutant at 30 to 300 nM incubated for 72 hrs by Annexin V-phycoerythrin and 7-amino-actinomycin D staining based PCA instrument analysis; assay type: functional, cell-based; conditions: dose 30-300 nM
BaF3 [12] = experiment: Induction of apoptosis in mouse BaF3 cells expressing Bcr-Abl M244V mutant assessed as increase in apoptotic cells at 1500 nM incubated for 72 hrs by Annexin V-phycoerythrin and 7-amino-actinomycin D staining based PCA instrument analysis relative to control; assay type: functional
[13] = Inhibition of BCR-ABL F311L mutant (unknown origin) expressed in mouse BaF3 cells assessed as inhibition of tyrosine phosphorylation incubated for 3 hrs by immunoblotting analysis; assay type: cell-based; conditions: BaF3, 3 h
BaF3 [14] = experiment: Induction of apoptosis in mouse BaF3 cells expressing Bcr-Abl L387M mutant assessed as increase in apoptotic cells at 1500 nM incubated for 72 hrs by Annexin V-phycoerythrin and 7-amino-actinomycin D staining based PCA instrument analysis relative to control; assay type: functional
[15] = Inhibition of BCR-ABL Y253F mutant (unknown origin) expressed in mouse BaF3 cells assessed as inhibition of cell growth incubated for 72 hrs by […] CellTiter96 viability analysis
[16] = Inhibition of BCR-ABL L387M mutant (unknown origin) expressed in mouse BaF3 cells assessed as inhibition of cell growth incubated for 72 hrs by […] CellTiter96 viability analysis; conditions: BaF3, time 72 hrs, condition chronic myelogenous leukemia
cells [17] = conditions: Mus musculus, BaF3, 3 h; remark: listed apart in the source
cells [18] = conditions: Mus musculus, BaF3, 3 h; remark: listed apart in the source
BaF3 [19] = experiment: Induction of apoptosis in mouse BaF3 cells expressing Bcr-Abl H396P mutant assessed as increase in apoptotic cells at 1500 nM incubated for 72 hrs by Annexin V-phycoerythrin and 7-amino-actinomycin D staining based PCA instrument analysis relative to control; assay type: functional
BaF3 [20] = experiment: Induction of apoptosis in mouse BaF3 cells expressing Bcr-Abl Y253H mutant at 30 to 300 nM incubated for 72 hrs by Annexin V-phycoerythrin and 7-amino-actinomycin D staining based PCA instrument analysis; assay type: functional, cell-based; conditions: dose 30-300 nM
[21] = Inhibition of BCR-ABL L387M mutant (unknown origin) expressed in mouse BaF3 cells assessed as inhibition of tyrosine phosphorylation incubated for 3 hrs by immunoblotting analysis; assay type: cell-based; conditions: BaF3, 3 h
BaF3 [22] = experiment: Induction of apoptosis in mouse BaF3 cells expressing Bcr-Abl Y253F mutant assessed as increase in apoptotic cells at 1500 nM incubated for 72 hrs by Annexin V-phycoerythrin and 7-amino-actinomycin D staining based PCA instrument analysis relative to control; assay type: functional
BaF3 [23] = experiment: Induction of apoptosis in mouse BaF3 cells expressing Bcr-Abl G250E mutant assessed as increase in apoptotic cells at 1500 nM incubated for 72 hrs by Annexin V-phycoerythrin and 7-amino-actinomycin D staining based PCA instrument analysis relative to control; assay type: functional
cells [24] = conditions: Mus musculus, BaF3, 3 h; remark: listed apart in the source
cells [25] = conditions: Mus musculus, BaF3, 3 h; remark: listed apart in the source
BaF3 [26] = experiment: Induction of apoptosis in mouse BaF3 cells expressing wild-type Bcr-Abl assessed as increase in apoptotic cells at 1500 nM incubated for 72 hrs by Annexin V-phycoerythrin and 7-amino-actinomycin D staining based PCA instrument analysis relative to control; assay type: functional
BaF3 [27] = experiment: Induction of apoptosis in mouse BaF3 cells expressing Bcr-Abl E255V mutant at 30 to 300 nM incubated for 72 hrs by Annexin V-phycoerythrin and 7-amino-actinomycin D staining based PCA instrument analysis; assay type: functional, cell-based; conditions: dose 30-300 nM
cells [28] = conditions: Mus musculus, BaF3, 72 h
BaF3 [29] = experiment: Induction of apoptosis in mouse BaF3 cells expressing Bcr-Abl V379l mutant at 30 to 300 nM incubated for 72 hrs by Annexin V-phycoerythrin and 7-amino-actinomycin D staining based PCA instrument analysis; assay type: functional, cell-based; conditions: dose 30-300 nM
[30] = Inhibition of BCR-ABL M244V mutant (unknown origin) expressed in mouse BaF3 cells assessed as inhibition of cell growth incubated for 72 hrs by […] CellTiter96 viability analysis; conditions: BaF3, time 72 hrs, condition chronic myelogenous leukemia
cells [31] = conditions: Mus musculus, BaF3, 3 h; remark: listed apart in the source
[32] = Inhibition of BCR-ABL Q252H mutant (unknown origin) expressed in mouse BaF3 cells assessed as inhibition of cell growth incubated for 72 hrs by […] CellTiter96 viability analysis
BaF3 [33] = experiment: Induction of apoptosis in mouse BaF3 cells expressing Bcr-Abl E255V mutant assessed as increase in apoptotic cells at 1500 nM incubated for 72 hrs by Annexin V-phycoerythrin and 7-amino-actinomycin D staining based PCA instrument analysis relative to control; assay type: functional
[34] = BaF3, time 72 hrs, condition chronic myelogenous leukemia

In the case of `Cc1cn(-c2cc(NC(=O)c3ccc(C)c(Nc4nccc(-c5cccnc5)n4)c3)cc(C(F)(F)F)c2)cn1` [NILOTINIB], the Activity (BaF3 [1]) was “Active”, the pIC50 [2] was 7.15 and the Activity (BaF3 [3]) was “Active”. For the same compound, the Activity (BaF3 [4]) was “Active”, the Activity (BaF3 [5]) was “Active” and the pIC50 ([6]; BaF3, 72 h) was 7.32. The IC90 [6, 34] was 0.152 µM, the pIC50 (cells [7]) was 8.15 and the pIC50 ([8]; BaF3, 72 h) was 6.76. The IC90 [8, 34] was 0.385 µM, the Activity (BaF3 [9]) was >90% and the pIC50 ([10]; BaF3, 72 h) was 7.39. For the same compound, the IC90 [10, 34] was 0.073 µM, the Activity (BaF3 [11]) was “Active” and the Activity (BaF3 [12]) was >90%. The pIC50 [13] was 7.36, the Activity (BaF3 [14]) was >90% and the pIC50 ([15]; BaF3, 72 h) was 6.90. It also gave an IC90 [15, 34] of 0.215 µM, an IC90 [16] of 0.115 µM and a pIC50 (cells [17]) of 7.66. For the same compound, the pIC50 (cells [18]) was 6.81, the Activity (BaF3 [19]) was >90% and the Activity (BaF3 [20]) was “Active”. The pIC50 [21] was 7.48, the Activity (BaF3 [22]) was >90% and the Activity (BaF3 [23]) was >90%. For the same compound, the pIC50 (cells [24]) was 7.26, the pIC50 (cells [25]) was 7.82 and the Activity (BaF3 [26]) was >90%. The Activity (BaF3 [27]) was “Active”, the pIC50 (cells [28]) was < 5.70 and the Activity (BaF3 [29]) was “Active”. It also gave an IC90 [30] of 0.056 µM, a pIC50 (cells [31]) of 7.33 and a pIC50 ([32]; BaF3, 72 h) of 7.15. It also gave an IC90 [32, 34] of 0.156 µM and an Activity (BaF3 [33]) of 65%.
